Results on 10 compounds are retold here after patent US8545816B2, “Benzoic acid ester compounds, compositions, uses and methods related thereto” (Ferrer Internacional, S.A., priority 2005, dated 2013).

Data set [1] in a line: Phototransposition under UVB lamp irradiation (UV absorption spectrum / TLC follow-up). The settings on record: for time to complete phototransposition (conversion to the dibenzoylmethane / benzophenone sunscreen): solution in methanol. In kind it is physicochemical. As to the method:
A solution of 5 mg of 1-phenylvinyl 4-methoxybenzoate in 10 mL of methanol was irradiated with UVB lamps ([…]) for 20 minutes at 35° C. […] The conversion to benzoyl-4-methoxybenzoyl-methane was observed from the beginning, being the complete conversion in 5 minutes.
A sample of 4 mL of a solution containing 0.231 mg of 1-(4-methoxyphenyl)-vinyl 4-tert-butylbenzoate in 50 mL of methanol was irradiated with UVB lamps (60 W·m^−2) for 10 minutes at 35° C. The conversion to avobenzone was completed in 5 minutes.
A sample of 4 mL of a solution containing 0.400 mg of 1-(4-tert-butylphenyl)-vinyl 4-methoxybenzoate in 50 mL of methanol was irradiated with UVB lamps (60 W·m^−2) for 10 minutes at 35° C. The conversion to avobenzone was completed in 5 minutes.
A solution containing 5 mg of 4-benzoyloxy-2-methoxy-benzenesulfonic acid in 10 mL of methanol was irradiated with UVB lamps (60 W·m^−2) for 20 minutes at 35° C. The absorption spectrum was then recorded minute by minute. The conversion to sulisobenzone was complete in 10 minutes.
A sample of 4 mL of a solution containing 0.395 mg of 3-diethylaminophenyl benzoate in 50 mL of methanol was irradiated with UVB lamps (60 W·m^−2) for 20 minutes at 35° C. The phototransformation to 4-diethylamino-2-hydroxybenzophenone was completed in 10 minutes.
A sample of 5 mg of 3-methoxyphenyl benzoate in 10 mL of polydimethylsiloxane (viscosity 10000 cSt) was irradiated with UVB lamps (60 W·m^−2) for 15 hours and 20 minutes at 35° C. The phototransformation to oxybenzone was completed in 40 minutes.
A solution of 5 mg of 1-phenylvinyl 4-tert-butylbenzoate in 10 mL of tert-butanol was irradiated with UVB lamps (60 W·m^−2) for 5 hours at 35° C.

For data set [2] the following is noted: cited from earlier work; for Absorbance: UV region absorbed; for Protection nm: wavelength range of protection.

Each structure is given as a SMILES string.

For the compound `CCN(CC)c1cccc(OC(=O)c2ccccc2)c1` [3-diethylaminophenyl benzoate, 3-Diethylaminophenyl benzoate], the “time to complete phototransposition (conversion to the dibenzoylmethane / benzophenone sunscreen)” value in data set [1] (UVB lamps 60 W·m^−2, 35° C.) stood at 10 min.
As for `C=C(OC(=O)c1ccc(C(C)(C)C)cc1)c1ccccc1` [1-phenylvinyl 4-tert-butylbenzoate, 1-Phenylvinyl 4-tert-butyl-benzoate], in data set [1] (tert-butanol, UVB lamps 60 W·m^−2, 5 hours, 35° C.), the “products detected after irradiation (thin layer chromatography, 1H-NMR)” value is given as “Some different compounds were detected by thin layer chromatography (hexane/ethyl acetate 2:1), one of said compounds being benzoyl-4-tert-butylbenzoylmethane”.
In the case of `COc1cc(OC(=O)c2ccccc2)ccc1S(=O)(=O)O` [4-Benzoyloxy-2-methoxybenzene-sulfonic acid], in data set [1] (UVB lamps 60 W·m^−2, 35° C.), the “time to complete phototransposition (conversion to the dibenzoylmethane / benzophenone sunscreen)” value was determined as 10 min.
With `COc1cc(O)c(C(=O)c2ccccc2)cc1S(=O)(=O)O` [Sulisobenzone, 5-benzoyl-4-hydroxy-2-methoxy-benzenesulfonic acid], in data set [2], the Absorbance entry is “UVB, UVA II^2” and the Protection nm is recorded as 260-375 nm.
On to `C=C(OC(=O)c1ccc(C(C)(C)C)cc1)c1ccc(OC)cc1` [1-(4-Methoxyphenyl)-vinyl 4-tert-butylbenzoate], for which, in data set [1] (UVB lamps 60 W·m^−2, 35° C.), the “time to complete phototransposition (conversion to the dibenzoylmethane / benzophenone sunscreen)” value came to 5 min.
For `COc1ccc(C(=O)c2ccccc2)c(O)c1` [Oxybenzone, 2-hydroxy-4-methoxybenzophenone], in data set [2], the Absorbance entry was “UVB, UVA II^2” and the Protection nm was 270-350 nm.
Consider `COc1cccc(OC(=O)c2ccccc2)c1` [3-methoxyphenyl benzoate, 3-Methoxyphenyl benzoate], for which, in data set [1] (in polydimethylsiloxane (viscosity 10000 cSt), UVB lamps 60 W·m^−2, 35° C.), the “time to complete phototransformation to oxybenzone” value worked out at 40 min.
In the case of `C=C(OC(=O)c1ccc(OC)cc1)c1ccccc1` [1-phenylvinyl 4-methoxybenzoate, 1-Phenylvinyl 4-methoxybenzoate], the “crude reaction spectrum after irradiation” value in data set [1] (methanol, UVB lamps, 20 minutes, 35° C.) was “new absorption band in UVA zone”. In addition, the “time to complete phototransposition (conversion to the dibenzoylmethane / benzophenone sunscreen)” value in data set [1] (UVB lamps 60 W·m^−2, 35° C.) amounted to 5 min.
For `C=C(OC(=O)c1ccc(OC)cc1)c1ccc(C(C)(C)C)cc1` [1-(4-Tert-butylphenyl)-vinyl 4-methoxybenzoate], the “time to complete phototransposition (conversion to the dibenzoylmethane / benzophenone sunscreen)” value in data set [1] (UVB lamps 60 W·m^−2, 35° C.) was 5 min.
Take `COc1ccc(C(=O)CC(=O)c2ccc(C(C)(C)C)cc2)cc1` [Avobenzone, 4-tert-butyl-4′-methoxydibenzoylmethane]: in data set [2], the Absorbance entry is recorded as “UVA I^1 (340-400 nm)” and the Protection nm was 320-400 nm.
